# Laboratory results as given in ChEMBL document CHEMBL1201862, “PubChem BioAssay data set” (2004).
#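 Exposure lasted 48 hours, with cells grown in 96-well plates and compounds tested at five concentrations. Here, GI50 denotes the concentration required for 50% inhibition of growth.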 The source made the active and inactive calls. No stated cut-off is given here; in the data, active = GI50 up to about 1.1 µM and inactive = higher.
# Tests used:
# Assay in all cases: growth of human tumour cells (NCI), 48 h
# TK-10 = system: TK-10
# MOLT-4 = system: MOLT-4
# SK-OV-3 = system: SK-OV-3
# HT-29 = system: HT-29
# HCT-116 = system: HCT-116
# HCC 2998 = system: HCC 2998
# COLO 205 = system: COLO 205
# MDA-MB-435 = system: MDA-MB-435
# CAKI-1 = system: CAKI-1
# KM12 = system: KM12
# RPMI-8226 = system: RPMI-8226
# K562 = system: K562
# HOP-62 = system: HOP-62
# NCI-H226 = system: NCI-H226
# SK-MEL-2 = system: SK-MEL-2
# CCRF-CEM = system: CCRF-CEM
# NCI-H23 = system: NCI-H23
# A498 = system: A498
SMILES,GI50 (TK-10),GI50 (MOLT-4),GI50 (SK-OV-3),GI50 (HT-29),GI50 (HCT-116),GI50 (HCC 2998),GI50 (COLO 205),GI50 (MDA-MB-435),GI50 (CAKI-1),GI50 (KM12),GI50 (RPMI-8226),GI50 (K562),GI50 (HOP-62),GI50 (NCI-H226),GI50 (SK-MEL-2),GI50 (CCRF-CEM),GI50 (NCI-H23),GI50 (A498)
CC12CCCCC1=C(F)C(F)(F)S2 (stereo not drawn),39.2 µM (inactive),11.3 µM (inactive),> 100 µM (inactive),20.8 µM (inactive),22.1 µM (inactive),> 67.1 µM (inactive),15.1 µM (inactive),43.3 µM (inactive),21.5 µM (inactive),> 84.7 µM (inactive),7.46 µM (inactive),17.5 µM (inactive),63.8 µM (inactive),> 100 µM (inactive),75.2 µM (inactive),8.65 µM (inactive),52.1 µM (inactive),> 100 µM (inactive)
C=C1CC(COc2cc(=O)oc3ccccc23)(c2ccccc2)OC1=O (stereo not drawn),1.59 µM (inactive),7.94 µM (inactive),3.27 µM (inactive),1.38 µM (inactive),1.46 µM (inactive),1.05 µM (active),1.51 µM (inactive),3.7 µM (inactive),1.3 µM (inactive),3.34 µM (inactive),0.507 µM (active),0.637 µM (active),8.53 µM (inactive),8.17 µM (inactive),1.08 µM (active),0.625 µM (active),1.77 µM (inactive),2.38 µM (inactive)
COC(=O)CCCc1nc2ccccc2nc1/N=N/c1ccccc1,> 100 µM (inactive),9.93 µM (inactive),> 100 µM (inactive),32.1 µM (inactive),30.3 µM (inactive),> 100 µM (inactive),3.71 µM (inactive),58.7 µM (inactive),41.6 µM (inactive),37.1 µM (inactive),22.9 µM (inactive),19.3 µM (inactive),52.5 µM (inactive),43 µM (inactive),> 100 µM (inactive),30.1 µM (inactive),39 µM (inactive),> 100 µM (inactive)
COc1cc(C2S/C(=C/c3ccccc3)C(=O)N2c2cc(Cl)ccc2Cl)cc(OC)c1OC (stereo not drawn),> 100 µM (inactive),34.8 µM (inactive),> 100 µM (inactive),47.1 µM (inactive),12.5 µM (inactive),> 100 µM (inactive),55.3 µM (inactive),34.1 µM (inactive),39.2 µM (inactive),19 µM (inactive),36.2 µM (inactive),47 µM (inactive),46.7 µM (inactive),40.4 µM (inactive),38.8 µM (inactive),35.2 µM (inactive),49.4 µM (inactive),> 100 µM (inactive)
Cc1cccc(-c2cc(O)c3ccc(C)nc3n2)c1,3.3 µM (inactive),0.421 µM (active),0.656 µM (active),0.198 µM (active),0.297 µM (active),1.07 µM (active),0.14 µM (active),0.0294 µM (active),0.256 µM (active),0.12 µM (active),0.43 µM (active),0.0993 µM (active),0.546 µM (active),0.367 µM (active),0.421 µM (active),0.354 µM (active),0.643 µM (active),0.644 µM (active)
Nc1ccccc1-c1noc(=O)[nH]1,> 100 µM (inactive),> 100 µM (inactive),> 100 µM (inactive),> 100 µM (inactive),> 100 µM (inactive),> 100 µM (inactive),> 100 µM (inactive),> 100 µM (inactive),> 100 µM (inactive),> 100 µM (inactive),> 100 µM (inactive),> 100 µM (inactive),> 100 µM (inactive),> 100 µM (inactive),> 100 µM (inactive),> 100 µM (inactive),> 100 µM (inactive),> 100 µM (inactive)
COC(=O)C1=C(C)NC(C)=C(C(=O)OC)C1c1cccc(N=O)c1,15 µM (inactive),4.76 µM (inactive),25.4 µM (inactive),16.3 µM (inactive),11 µM (inactive),22.3 µM (inactive),18.5 µM (inactive),16.1 µM (inactive),10.6 µM (inactive),16.6 µM (inactive),4.53 µM (inactive),4.69 µM (inactive),21.1 µM (inactive),16.3 µM (inactive),15.6 µM (inactive),3.55 µM (inactive),19.5 µM (inactive),35 µM (inactive)
C/C(=N\NS(=O)(=O)c1ccc(C)cc1)c1ccccn1,70.6 µM (inactive),21.2 µM (inactive),55.3 µM (inactive),44.5 µM (inactive),40.7 µM (inactive),> 100 µM (inactive),32.7 µM (inactive),> 100 µM (inactive),36 µM (inactive),43.7 µM (inactive),> 100 µM (inactive),83.8 µM (inactive),62.2 µM (inactive),32.9 µM (inactive),> 100 µM (inactive),18.5 µM (inactive),54.1 µM (inactive),24.3 µM (inactive)
C[C@]12CC/C(=N\OCCN3CCCC3)C=C1CCC1C2CC[C@@]2(C)C1CC[C@]2(C)O (stereo partly drawn),15.8 µM (inactive),3.74 µM (inactive),18.5 µM (inactive),1.25 µM (inactive),5.16 µM (inactive),11.8 µM (inactive),3.4 µM (inactive),2.28 µM (inactive),7.43 µM (inactive),5.09 µM (inactive),2.83 µM (inactive),2.4 µM (inactive),13.1 µM (inactive),2.9 µM (inactive),16.4 µM (inactive),3.56 µM (inactive),12.2 µM (inactive),0.647 µM (active)
O=C(O)CCC1COc2ccccc2O1 (stereo not drawn),> 10 µM (inactive),> 10 µM (inactive),> 10 µM (inactive),> 10 µM (inactive),> 10 µM (inactive),> 10 µM (inactive),> 10 µM (inactive),> 10 µM (inactive),> 10 µM (inactive),> 10 µM (inactive),> 10 µM (inactive),> 10 µM (inactive),> 10 µM (inactive),> 10 µM (inactive),> 10 µM (inactive),> 10 µM (inactive),> 10 µM (inactive),> 10 µM (inactive)
CC1NC(=O)c2c(-c3ccccc3)nn(-c3ccccc3)c2NC1=O (stereo not drawn),> 100 µM (inactive),> 100 µM (inactive),> 100 µM (inactive),> 100 µM (inactive),> 100 µM (inactive),> 100 µM (inactive),> 100 µM (inactive),> 100 µM (inactive),> 100 µM (inactive),> 100 µM (inactive),> 100 µM (inactive),> 100 µM (inactive),> 100 µM (inactive),> 100 µM (inactive),> 100 µM (inactive),> 100 µM (inactive),> 100 µM (inactive),> 100 µM (inactive)
O=C1NC2=NOC(=O)NC2=NO1,> 200 µM (inactive),> 200 µM (inactive),> 200 µM (inactive),> 200 µM (inactive),> 200 µM (inactive),> 200 µM (inactive),> 200 µM (inactive),> 200 µM (inactive),> 200 µM (inactive),> 200 µM (inactive),> 200 µM (inactive),> 200 µM (inactive),> 200 µM (inactive),> 200 µM (inactive),> 200 µM (inactive),> 200 µM (inactive),> 200 µM (inactive),> 200 µM (inactive)
C[C@]12CC[C@@H]3c4cc(C=O)c(OCc5ccccc5)cc4CC[C@H]3[C@@H]1CCC2OCc1ccccc1 (stereo partly drawn),> 100 µM (inactive),> 100 µM (inactive),> 100 µM (inactive),> 100 µM (inactive),> 100 µM (inactive),> 100 µM (inactive),> 100 µM (inactive),> 100 µM (inactive),> 100 µM (inactive),> 100 µM (inactive),> 100 µM (inactive),> 100 µM (inactive),> 100 µM (inactive),32.8 µM (inactive),> 100 µM (inactive),> 100 µM (inactive),89.9 µM (inactive),> 100 µM (inactive)
c1ccc(Sc2nc(Sc3ccccc3)nc(Sc3ccccc3)n2)cc1,44.6 µM (inactive),17.8 µM (inactive),> 100 µM (inactive),38.9 µM (inactive),60.1 µM (inactive),18.1 µM (inactive),18.6 µM (inactive),52.1 µM (inactive),38.9 µM (inactive),13.9 µM (inactive),15.4 µM (inactive),> 100 µM (inactive),35.7 µM (inactive),25.9 µM (inactive),37.2 µM (inactive),6.46 µM (inactive),> 100 µM (inactive),29.9 µM (inactive)
Nc1nc(Cl)c2ncn(Cc3cccc(CCl)c3)c2n1,6.31 µM (inactive),3.6 µM (inactive),20 µM (inactive),3.87 µM (inactive),2 µM (inactive),3.03 µM (inactive),8.38 µM (inactive),6.73 µM (inactive),1.23 µM (inactive),4.53 µM (inactive),2.57 µM (inactive),4.38 µM (inactive),2.84 µM (inactive),6.28 µM (inactive),12.1 µM (inactive),3.18 µM (inactive),1.87 µM (inactive),25 µM (inactive)
COc1c2c3c4c(c(OC)c(=O)c5c(O)cc(OC)c(c6c(OC)cc(O)c(c1=O)c63)c54)C(C(C)O)C2C(C)=O (stereo not drawn),0.581 µM (active),0.279 µM (active),0.826 µM (active),0.47 µM (active),0.385 µM (active),0.481 µM (active),0.571 µM (active),0.295 µM (active),0.279 µM (active),0.431 µM (active),0.513 µM (active),0.234 µM (active),0.177 µM (active),0.528 µM (active),0.738 µM (active),0.269 µM (active),0.331 µM (active),0.628 µM (active)
